# Data reported in patent US20110280831A1, “COMBINATIONS COMPRISING METHOTREXATE AND DHODH INHIBITORS” (priority 2009, published 2011).
# “Also recorded” adds a separate entry of the source.
# Legend:
# human DHODH = human DHODH (Homo sapiens, UniProt Q02127); assay: Inhibition of human DHODH activity assay (DCIP chromogen reduction); type: biochemical; details: enzyme extracts, 10 min at room temperature, absorbance at 600 nm, duplicate; read-out: hDHODH IC50
# Experimental: DHODH activity and its inhibition were studied using a chromogen reduction assay with DCIP (2,6-dichlorophenol-indophenol).
# Enzyme extracts (8 μl, ˜1.5 μg of human protein) were incubated in 96-well plates. The assay mixture (200 μl) contained 200 μM CoQD, 100 μM L-DHO, 120 μM DCIP in the assay buffer (100 mM HEPES pH 8.0, 150 mM NaCl, 10% Glicerol, 0.05% Triton X-100) and 2 μl of test compound. The compounds were dissolved in DMSO at a stock concentration of 1 mM, and tested at different concentrations varying from 10 μM to 1 pM to calculate an IC50 (concentration of inhibitor required for 50% of inhibition).
# The reaction was initiated by adding the enzyme and then incubated for 10 min at room temperature before measuring DCIP reduction by counting a decrease in absorbance at 600 nm using standard instrumentation (Spectramax).
# All reactions were carried out in duplicate and graphs, determining IC50 values for each compound, were plotted using the ABase software.
# Swiss mice = assay: Acute hepatotoxicity assay, plasma liver markers; type: in vivo; details: for ALT plasma level / AST plasma level / BIL (total bilirubin) plasma level: Swiss mice, single 100 mg/kg intraperitoneal, 24 hours later
# Experimental: Acute hepatotoxicity assays were performed in Swiss mice. Animals received a single administration of either vehicle, or 100 mg/kg of teriflunomide or a compound of the present invention (compounds from the list indicated previously) by intraperitoneal route. Twenty-four hours later, animals were sacrificed and the levels of liver markers AST (aspartate aminotransferase), ALT (alanine aminotransferase) and BIL (total bilirubin) in plasma were determined.
# [1] = tested on: rat adjuvant-induced arthritis model (AIA); assay: Efficacy assay in rat adjuvant-induced arthritis model (AIA), curative protocol; type: in vivo, Wistar rats; details: arthritic rats, oral once a day for 10 days, compound 20 10 mg/Kg/day, MTX 0.05 mg/Kg/day, AUC days 10-21 versus vehicle, mean and SEM
# Experimental: The effect of DHODH inhibitor compounds were tested in combination with methotrexate (0.05 mg/Kg/day) in the rat adjuvant-induced arthritis model (AIA) in animals with established disease (curative protocol). Briefly, Complete Freund Adjuvant (CFA) was injected into the left hind footpad of Wistar rats, and 10 days later the swelling of the two rear paws was measured with a plethysnnometer. […] Compounds were administered orally once a day for 10 days and paw volumes were determined every two days up to day 21.
# The percentage of inhibition for every group was calculated versus values from vehicle-treated rats. The table below depicts the mean and SEM of one experiment using 6 animals per group.
# Sequence of human DHODH (Q02127 whole entry): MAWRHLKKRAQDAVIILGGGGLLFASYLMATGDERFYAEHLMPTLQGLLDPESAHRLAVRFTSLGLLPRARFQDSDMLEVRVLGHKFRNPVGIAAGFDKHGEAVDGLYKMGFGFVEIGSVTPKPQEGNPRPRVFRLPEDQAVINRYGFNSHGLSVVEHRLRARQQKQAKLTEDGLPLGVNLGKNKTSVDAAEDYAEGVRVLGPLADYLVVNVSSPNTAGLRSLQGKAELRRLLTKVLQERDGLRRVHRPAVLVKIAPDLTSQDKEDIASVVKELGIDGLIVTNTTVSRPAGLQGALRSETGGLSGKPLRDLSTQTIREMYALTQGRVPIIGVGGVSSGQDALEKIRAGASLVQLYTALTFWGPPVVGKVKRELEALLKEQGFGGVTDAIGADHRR
Compound,IC50 (human DHODH),ALT plasma level (Swiss mice),AST plasma level (Swiss mice),BIL (total bilirubin) plasma level (Swiss mice),% inhibition of the inflammation (AUC) Right paw [1],"change in plasma liver markers (AST, ALT, BIL) compared to vehicle-treated mice, in words (Swiss mice; mice, intraperitoneal route, 100 mg/kg)"
"Cc1ccc(Nc2cnc(-c3ccccc3Cl)nc2)c(C(=O)O)c1 [Compound 123, 2-(2-(2-Chlorophenyl)pyrimidin-5-ylamino)-5-methylbenzoic acid]",57 nM,89 IU/I,113 IU/I,0.06 mg/dL,–,–
"Cc1ccc(Nc2ccc(-c3ccccc3Cl)nc2)c(C(=O)O)c1 [Compound 85, 2-(6-(2-Chlorophenyl)pyridin-3-ylamino)-5-methylbenzoic acid]",32 nM,43 IU/I,83 IU/I,0.13 mg/dL,–,–
"C/C(O)=C(\C#N)C(=O)Nc1ccc(C(F)(F)F)cc1 [Teriflunomide, reference compound]",–,440 IU/I,655 IU/I,0.46 mg/dL,–,dramatic increase; also recorded: drastic increase
"Cc1ccc(Nc2cnc(-c3ccccc3)c(C)c2)c(C(=O)O)c1 [Compound 60, 5-Methyl-2-(5-methyl-6-phenylpyridin-3-ylamino)benzoic acid]",53 nM,70 IU/I,131 IU/I,0.09 mg/dL,–,–
"CCOc1ccc(F)c(-c2ccc(Nc3ccc(C)cc3C(=O)O)cn2)c1 [Compound 54, 2-(6-(5-Ethoxy-2-fluorophenyl)pyridin-3-ylamino)-5-methylbenzoic acid]",19 nM,–,–,–,–,–
"CN(Cc1cnc2nc(N)nc(N)c2n1)c1ccc(C(=O)N[C@@H](CCC(=O)O)C(=O)O)cc1 [MTX, Methotrexate]",–,–,–,–,33 ± 9%,–
"Cc1ccc(Nc2ccc(-c3ccncc3F)nc2)c(C(=O)O)c1 [Compound 116, 2-(3′-Fluoro-2,4′-bipyridin-5-ylamino)-5-methylbenzoic acid]",90 nM,–,–,–,–,–
"Cc1ccc(Nc2cnc(N3CCCCC3)c(C)c2)c(C(=O)O)c1 [Compound 30, 5-Methyl-2-(5-methyl-6-(piperidin-1-yl)pyridin-3-ylamino)benzoic acid]",41 nM,–,–,–,–,–
"Cc1ccc(Nc2ccc(-c3c(F)ccc(F)c3F)nc2)c(C(=O)O)c1 [Compound 144, 2-(6-(2,3,6-trifluorophenyl)pyridin-3-ylamino)-5-methylbenzoic acid]",77 nM,–,–,–,–,–
"O=C(O)c1cc(Cl)ccc1Nc1ccc(-c2ccccc2Cl)nc1 [Compound 110, 5-Chloro-2-(6-(2-chlorophenyl)pyridin-3-ylamino)benzoic acid]",145 nM,–,–,–,–,–
"COc1cccc(-c2ncc(Nc3ccc(C)cc3C(=O)O)cc2C)c1 [Compound 51, 2-(6-(3-Methoxyphenyl)-5-methylpyridin-3-ylamino)-5-methylbenzoic acid]",21 nM,–,–,–,–,–
"Cc1ccc(Nc2ccc(-c3ccccc3F)nc2)c(C(=O)O)c1 [Compound 57, 2-(6-(2-Fluorophenyl)pyridin-3-ylamino)-5-methylbenzoic acid]",91 nM,–,–,–,–,–
"Cc1ccc(Nc2cnc(-c3ccncc3F)c(C)c2)c(C(=O)O)c1 [Compound 101, 2-(3′-Fluoro-3-methyl-2,4′-bipyridin-5-ylamino)-5-methylbenzoic acid]",37 nM,–,–,–,–,–

# Now from value to molecule, other results behind:
IC50 (human DHODH),Compound,ALT plasma level (Swiss mice),AST plasma level (Swiss mice),BIL (total bilirubin) plasma level (Swiss mice),% inhibition of the inflammation (AUC) Right paw [1],"change in plasma liver markers (AST, ALT, BIL) compared to vehicle-treated mice, in words (Swiss mice; mice, intraperitoneal route, 100 mg/kg)"
14 nM,"O=C(O)c1cc(C2CC2)ccc1Nc1cnc(-c2c(F)cccc2F)nc1 [Compound 20, 5-cyclopropyl-2-(2-(2,6-difluorophenyl)pyrimidin-5-ylamino)benzoic acid]",45 IU/I,98 IU/I,0.07 mg/dL,32 ± 8%,–
3 nM,"O=C(O)c1cc(C2CC2)ccc1Nc1cnc(-c2ccccc2Cl)nc1 [Compound 121, 2-(2-(2-Chlorophenyl)pyrimidin-5-ylamino)-5-cyclopropylbenzoic acid]",75 IU/I,105 IU/I,0.05 mg/dL,–,–
5 nM,"Cc1ccc(Nc2cnc(-c3ccccc3F)c(C)c2)c(C(=O)O)c1 [Compound 97, 2-(6-(2-Fluorophenyl)-5-methylpyridin-3-ylamino)-5-methylbenzoic acid]",55 IU/I,92 IU/I,0.11 mg/dL,–,–
14 nM,"Cc1ccc(Nc2cnc(-c3ccccc3Cl)c(C)c2)c(C(=O)O)c1 [Compound 71, 2-(6-(2-Chlorophenyl)-5-methylpyridin-3-ylamino)-5-methylbenzoic acid]",72 IU/I,95 IU/I,0.05 mg/dL,–,–
19 nM,"Cc1ccc(Nc2ccc(-c3c(F)cccc3F)nc2)c(C(=O)O)c1 [Compound 119, 2-(6-(2,6-Difluorophenyl)pyridin-3-ylamino)-5-methylbenzoic acid]",69 IU/I,96 IU/I,0.08 mg/dL,–,–
12 nM,"Cc1ccccc1-c1ncc(Nc2ccc(C3CC3)cc2C(=O)O)cn1 [Compound 129, 2-(2-o-tolylpyrimidin-5-ylamino)-5-cyclopropylbenzoic acid]",–,–,–,–,–
8 nM,"O=C(O)c1cc(C2CC2)ccc1Nc1ccc(-c2ccccc2F)nc1 [Compound 138, 2-(6-(2-fluorophenyl)pyridin-3-ylamino)-5-cyclopropylbenzoic acid]",–,–,–,–,–
10 nM,"Cc1ccc(Nc2cnc(-c3cccc(Cl)c3)c(C)c2)c(C(=O)O)c1 [Compound 95, 2-(6-(3-Chlorophenyl)-5-methylpyridin-3-ylamino)-5-methylbenzoic acid]",–,–,–,–,–
10 nM,"O=C(O)c1cc(C2CC2)ccc1Nc1cnc(-c2ccccc2F)nc1 [Compound 127, 5-Cyclopropyl-2-(2-(2-fluorophenyl)pyrimidin-5-ylamino)benzoic acid]",56 IU/I,72 IU/I,0.07 mg/dL,–,–
